The text below walks through data of patent US20240350430A1, “GROWTH INHIBITOR OF METASTATIC HUMAN PROSTATE CANCER CELLS” (Watanabe Oyster Laboratory Co., Ltd., priority 2021, published 2024).

One experiment deals with DU-145 cells. Briefly: Cell death of sub-confluent DU-145 cells (adherent cell counting). It is filed as cell-based, human. The protocol: The PC-3 and DU-145 cells (1×10^5/in 1 ml of a culture fluid per hole using a 24-hole plate) were cultured in a DMEM culture fluid (containing 10% of FBS, 1% of P/S, and 1% of fungizone) under 5% of CO2, at 37° C., for three days, and when the cells reached sub-confluence, the culture fluid was exchanged for the one containing the DHMBA (0.01, 0.1, 1, 10, 100, or 1000 μM), and the cells were cultured for 24 and 48 hours. After the culture, the cells adhering to the bottom surface of the dish were removed and counted. In another experiment, after the culture for three days, when the cells reached sub-confluence, the culture fluid was exchanged for a culture fluid containing the DHMBA (1 or 10 μM) and a caspase-3 inhibitor (10 μM), and the cells were counted after the culture for 48 hours. Further, after the culture for three days, when the cells reached sub-confluence, the culture fluid was exchanged for a culture fluid obtained by adding gemcitabine (0.1, 1, 10, 50 or 100 nM) or CH223191 (1, 10, and 25 μM) to a DMEM culture fluid containing the DHMBA (1 or 10 μM) or not containing the DHMBA, and the cells were counted after the culture for 48 hours. […]

The test system of the next experiment is PC-3 cells. The experiment in a line: Cell migration scratch assay, PC-3 cells. It is filed as cell-based, human. The conditions noted are these: DHMBA 1, 10, 100, or 1000 μM, 48 hours. The protocol:
The migration of the prostate cancer PC-3 and DU-145 cells was examined using a scratch assay. The PC-3 and DU-145 cells (the cell number of 2×10^5/in 1 ml of a culture fluid per hole using a 24-hole plate) were cultured in a DMEM culture fluid containing 10% of FBS, 1% of P/S, and 1% of fungizone under 5% of CO2, at 37° C., for 48 hours, and a straight line scratch was performed using a pipette tip (200 μl) when the cells reached confluence. Free cells were washed with PBS to be removed, the above-described culture fluid (containing 0.1, 1, 10, 100, or 1000 μM of the DHMBA) was added, and the cells were cultured for 48 hours. After the culture, intervals of cell-free parts were measured.
The PC-3 and DU-145 cells (the cell number of 2× 10^5/1 ml of a culture fluid per hole using a 24-hole plate) were cultured under 5% of CO2, at 37° C., for 48 hours in a DMEM culture fluid containing 10% of FBS, 1% of P/S, and 1% of fungizone, and a straight line scratch was performed using a pipette tip (200 μl) when the cells reached confluence. Free cells were washed with PBS to be removed, the above-described culture fluid (containing 0.1, 1, 10, 100, or 1000 μM of the DHMBA) was added, and the cells were cultured for 48 hours. After the culture, intervals of cell-free parts were measured. […]

The structures appear in SMILES notation.

Take `COc1c(O)cc(CO)cc1O` [DHMBA, 3,5-dihydroxy-4-methoxybenzyl alcohol]: the cell death result in the experiment on DU-145 cells (DHMBA 1, 10, 100, or 1000 μM, 24 and 48 hours) is “significantly increased”. Besides, in the experiment with DU-145 cells (DHMBA 1 or 10 μM with caspase-3 inhibitor 10 μM, 48 hours), the “increase of cell death in the presence of caspase-3 inhibitor” value was “not caused”. Also, the migration result in the experiment on PC-3 cells was “significantly inhibited”.
